Consider 25 compounds from patent US9884063B2, “Amido-substituted azole compounds” (Bayer Pharma Aktiengesellschaft, priority 2014, dated 2018).

SMILES strings stand for the structures. Structures can show the parent of a compound that is named as a salt.

The assay addresses T1, TNKS1 (Homo sapiens, UniProt O95271).
T1 sequence (O95271 1-1327): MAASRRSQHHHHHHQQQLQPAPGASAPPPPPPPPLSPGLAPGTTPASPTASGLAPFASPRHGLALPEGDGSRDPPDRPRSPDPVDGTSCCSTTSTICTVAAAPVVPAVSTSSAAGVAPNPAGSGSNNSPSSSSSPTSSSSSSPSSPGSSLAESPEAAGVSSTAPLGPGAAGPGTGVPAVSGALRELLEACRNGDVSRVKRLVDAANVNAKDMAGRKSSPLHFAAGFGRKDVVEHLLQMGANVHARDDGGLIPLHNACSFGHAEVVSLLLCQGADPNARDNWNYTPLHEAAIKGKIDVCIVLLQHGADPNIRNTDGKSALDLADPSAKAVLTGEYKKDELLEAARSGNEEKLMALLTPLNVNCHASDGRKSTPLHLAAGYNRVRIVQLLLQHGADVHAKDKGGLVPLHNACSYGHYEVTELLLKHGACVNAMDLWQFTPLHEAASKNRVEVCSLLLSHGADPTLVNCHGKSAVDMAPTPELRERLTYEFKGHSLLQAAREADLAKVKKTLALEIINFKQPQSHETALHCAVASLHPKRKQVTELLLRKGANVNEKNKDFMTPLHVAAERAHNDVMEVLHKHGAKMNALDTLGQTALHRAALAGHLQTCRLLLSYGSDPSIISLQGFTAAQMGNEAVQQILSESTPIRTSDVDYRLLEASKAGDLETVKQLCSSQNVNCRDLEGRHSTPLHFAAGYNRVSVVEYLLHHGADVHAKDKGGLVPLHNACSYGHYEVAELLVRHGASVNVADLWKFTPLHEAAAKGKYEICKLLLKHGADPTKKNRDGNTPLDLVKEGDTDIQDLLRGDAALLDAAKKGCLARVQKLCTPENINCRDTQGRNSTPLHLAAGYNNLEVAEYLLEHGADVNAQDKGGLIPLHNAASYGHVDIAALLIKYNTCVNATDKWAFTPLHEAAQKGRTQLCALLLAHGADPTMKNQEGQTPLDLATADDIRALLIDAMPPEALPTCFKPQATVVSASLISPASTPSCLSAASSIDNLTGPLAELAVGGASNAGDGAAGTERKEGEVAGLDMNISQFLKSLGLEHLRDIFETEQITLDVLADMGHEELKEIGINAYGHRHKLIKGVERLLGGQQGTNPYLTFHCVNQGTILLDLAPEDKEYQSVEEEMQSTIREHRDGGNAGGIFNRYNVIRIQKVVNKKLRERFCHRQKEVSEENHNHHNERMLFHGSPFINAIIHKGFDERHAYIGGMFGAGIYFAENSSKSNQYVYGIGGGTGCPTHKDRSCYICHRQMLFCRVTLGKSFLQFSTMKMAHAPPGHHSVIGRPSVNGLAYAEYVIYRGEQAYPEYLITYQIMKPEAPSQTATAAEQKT
As to the kind of experiment: Modified TNKS1 Assay 3 (BPS kit #80573, biotin-NAD+, 96 well). Type of assay: biochemical. The settings on record: human TNKS1, BPS kit #80573, 96 well. The procedure, abridged:
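Chemiluminescent assay of TNKS1-catalysed ribosylation of a protein substrate with biotin-labelled NAD+, detected via streptavidin-HRP; run per kit protocol. Inhibition lowers the signal, and IC50 is the compound concentration halving the normalised readout.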

In turn, `O=C(Nc1ccc(NC(=O)c2nc[nH]c2C(=O)N2CCC2)cc1)c1ccc(F)cc1Cl` [Example 142, 5-(azetidin-1-ylcarbonyl)-N-{4-[(2-chloro-4-fluorobenzoyl)amino]phenyl}-1H-imidazole-4-carboxamide] returned an IC50 of 190 nM. `CC(CN1CCOCC1)NC(=O)c1[nH]cnc1C(=O)Nc1ccc(NC(=O)c2ccc(F)cc2Cl)cc1` (stereo not shown) [Example 268, N^4-{4-[(2-chloro-4-fluorobenzoyl)amino]phenyl}-N^5-[1-(morpholin-4-yl)propan-2-yl]-1H-imidazole-4,5-dicarboxamide]: the IC50 worked out at 110 nM. On to `O=C(Nc1ccc(NC(=O)c2nc[nH]c2C(=O)NCCO)cc1)c1ccc(F)cc1Cl` [Example 132, N^4-{4-[(2-chloro-4-fluorobenzoyl)amino]phenyl}-N^5-(2-hydroxyethyl)-1H-imidazole-4,5-dicarboxamide], for which the IC50 was above 500 nM. Compound `O=C(Nc1ccc(NC(=O)c2ocnc2C(=O)NCCN2CCCC(F)C2)cc1)c1ccc(F)cc1Cl` (stereo not shown) [Example 220, N^5-{4-[(2-chloro-4-fluorobenzoyl)amino]phenyl}-N^4-[2-(3-fluoropiperidin-1-yl)ethyl]-1,3-oxazole-4,5-dicarboxamide] showed an IC50 of 260 nM. `O=C(Nc1ccc(NC(=O)c2nc[nH]c2C(=O)N2CC3(COC3)C2)cc1)c1ccc(F)cc1Cl` [Example 145, N-{4-[(2-chloro-4-fluorobenzoyl)amino]phenyl}-5-(2-oxa-6-azaspiro[3.3]hept-6-ylcarbonyl)-1H-imidazole-4-carboxamide] returned an IC50 above 500 nM. The value for `O=C(Nc1ccc(NC(=O)c2nc[nH]c2C(=O)NCC2CCCN2)cc1)c1ccc(F)cc1Cl` (stereo not shown) [Example 284, N^4-{4-[(2-chloro-4-fluorobenzoyl)amino]phenyl}-N^5-(pyrrolidin-2-ylmethyl)-1H-imidazole-4,5-dicarboxamide hydrochloride salt] was 60 nM; that for `CN(C)CCNC(=O)c1nc[nH]c1C(=O)Nc1ccc(NC(=O)c2ccc(S(C)(=O)=O)cc2Cl)cc1` [Example 54, N^5-(4-{[2-chloro-4-(methylsulfonyl)benzoyl]amino}phenyl)-N^4-[2-(dimethylamino)ethyl]-1H-imidazole-4,5-dicarboxamide] was 20 nM; that for `C[C@H]1CCCCN1CCNC(=O)c1[nH]cnc1C(=O)Nc1ccc(NC(=O)c2ccc(F)cc2Cl)cc1` [Example 266, N^4-{4-[(2-chloro-4-fluorobenzoyl)amino]phenyl}-N^5-{2-[(25)-2-methylpiperidin-1-yl]ethyl}-1H-imidazole-4,5-dicarboxamide formic acid salt] was 20 nM. With `CNCCNC(=O)c1[nH]cnc1C(=O)Nc1ccc(NC(=O)c2ccc(F)cc2Cl)cc1` [Example 287, N^4-{4-[(2-chloro-4-fluorobenzoyl)amino]phenyl}-N^5-[2-(methylamino)ethyl]-1H-imidazole-4,5-dicarboxamide] the figure was 80 nM; with `O=C(Nc1ccc(NC(=O)c2nc[nH]c2C(=O)NCCN2CCCC2)cc1)c1ccc(F)cc1Cl` [Example 228, N^4-{4-[(2-chloro-4-fluorobenzoyl)amino]phenyl}-N^5-[2-(pyrrolidin-1-yl)ethyl]-1H-imidazole-4,5-dicarboxamide], 20 nM.

`CC(C)(N)CNC(=O)c1ncoc1C(=O)Nc1ccc(NC(=O)c2ccc(F)cc2Cl)cc1` [Example 219, N^4-(2-amino-2-methylpropyl)-N^5-{4-[(2-chloro-4-fluorobenzoyl)amino]phenyl}-1,3-oxazole-4,5-dicarboxamide] came in with an IC50 above 500 nM. Regarding `CC1CCN(CCCNC(=O)c2nc[nH]c2C(=O)Nc2ccc(NC(=O)c3ccc(F)cc3Cl)cc2)CC1` [Example 400, N^5-{4-[(2-chloro-4-fluorobenzoyl)amino]phenyl}-N^4-[3-(4-methylpiperidin-1-yl)propyl]-1H-imidazole-4,5-dicarboxamide], it took 20 nM to reach half-maximal inhibition (IC50). With `O=C(Nc1ccc(NC(=O)c2[nH]cnc2C(=O)NCCN2CCCCC2)cc1F)c1ccccc1Cl` [Example 82, N^5-{4-[(2-chlorobenzoyl)amino]-3-fluorophenyl}-N^4-[2-(piperidin-1-yl)ethyl]-1H-imidazole-4,5-dicarboxamide], half-maximal inhibition (IC50) was put at 10 nM. In turn, `CC(C)(N)CNC(=O)c1[nH]cnc1C(=O)Nc1ccc(NC(=O)c2ccc(F)cc2Cl)cc1` [Example 280, N^5-(2-amino-2-methylpropyl)-N^4-{4-[(2-chloro-4-fluorobenzoyl)amino]phenyl}-1H-imidazole-4,5-dicarboxamide] displayed an IC50 of 60 nM. The value for `CCc1nc(C(=O)Nc2ccc(NC(=O)c3ccc(F)cc3Cl)cc2)c(C(=O)NCCN2CCCCC2)[nH]1` [Example 70, N^4-{4-[(2-chloro-4-fluorobenzoyl)amino]phenyl}-2-ethyl-N^5-[2-(piperidin-1-yl)ethyl]-1H-imidazole-4,5-dicarboxamide] was 20 nM. Regarding `CN1CCN(CCCNC(=O)c2nc[nH]c2C(=O)Nc2ccc(NC(=O)c3ccc(F)cc3Cl)cc2)CC1` [Example 392, N^5-{4-[(2-chloro-4-fluorobenzoyl)amino]phenyl}-N^4-[3-(4-methylpiperazin-1-yl)propyl]-1H-imidazole-4,5-dicarboxamide], the IC50 is 20 nM. Turning to `O=C(Nc1ccc(NC(=O)c2nc[nH]c2C(=O)NCCN2CCOCC2)cc1)c1ccc(F)cc1Cl` [Example 227, N^4-{4-[(2-chloro-4-fluorobenzoyl)amino]phenyl}-N^5-[2-(morpholin-4-yl)ethyl]-1H-imidazole-4,5-dicarboxamide], the midpoint of inhibition, the IC50, lay at 200 nM. For `CC(C)c1nc(C(=O)Nc2ccc(NC(=O)c3ccc(F)cc3Cl)cc2)c(C(=O)NCCN2CCCCC2)[nH]1` [Example 108, N^4-{4-[(2-chloro-4-fluorobenzoyl)amino]phenyl}-2-isopropyl-N^5-[2-(piperidin-1-yl)ethyl]-1H-imidazole-4,5-dicarboxamide], half-maximal inhibition (IC50) was put at 460 nM. Consider `COc1cc(NC(=O)c2[nH]cnc2C(=O)NCCN2CCCCC2)ccc1NC(=O)c1ccc(F)cc1Cl` [Example 97, N^5-{4-[(2-chloro-4-fluorobenzoyl)amino]-3-methoxyphenyl}-N^4-[2-(piperidin-1-yl)ethyl]-1H-imidazole-4,5-dicarboxamide], for which the IC50 stood at 90 nM. The value for `CNC(=O)c1nc[nH]c1C(=O)Nc1ccc(NC(=O)c2ccc(OC)cc2Cl)cc1` [Example 246, N^5-{4-[(2-chloro-4-methoxybenzoyl)amino]phenyl}-N^4-methyl-1H-imidazole-4,5-dicarboxamide] was above 500 nM. For the compound `O=C(Nc1ccc(NC(=O)c2nc[nH]c2C(=O)NCCN2CCCC(F)(F)C2)cc1)c1ccc(F)cc1Cl` [Example 225, N^4-{4-[(2-chloro-4-fluorobenzoyl)amino]phenyl}-N^5-[2-(3,3-difluoropiperidin-1-yl)ethyl]-1H-imidazole-4,5-dicarboxamide], the midpoint of inhibition, the IC50, lay at 180 nM. The value for `O=C(Nc1ccc(NC(=O)c2nc[nH]c2C(=O)NCC(F)F)cc1)c1ccc(F)cc1Cl` [Example 139, N^4-{4-[(2-chloro-4-fluorobenzoyl)amino]phenyl}-N^5-(2,2-difluoroethyl)-1H-imidazole-4,5-dicarboxamide] was 290 nM; that for `O=C(Nc1ccc(NC(=O)c2nc[nH]c2C(=O)NCC2CCOCC2)cc1)c1ccc(F)cc1Cl` [Example 233, N^4-{4-[(2-chloro-4-fluorobenzoyl)amino]phenyl}-N^5-(tetrahydro-2H-pyran-4-ylmethyl)-1H-imidazole-4,5-dicarboxamide] was 480 nM. As for `O=C(Nc1ccc(NC(=O)c2nc[nH]c2C(=O)NCCN2CCC(F)(F)CC2)cc1)c1ccc(F)cc1Br` [Example 215, N^4-{4-[(2-bromo-4-fluorobenzoyl)amino]phenyl}-N^5-[2-(4,4-difluoropiperidin-1-yl)ethyl]-1H-imidazole-4,5-dicarboxamide], it took 210 nM to reach half-maximal inhibition (IC50). Regarding `O=C(Nc1ccc(NC(=O)c2ocnc2C(=O)NCCN2CC[C@H](F)C2)cc1)c1ccc(F)cc1Cl` [Example 221, N^5-{4-[(2-chloro-4-fluorobenzoyl)amino]phenyl}-N^4-{2-[(3S)-3-fluoropyrrolidin-1-yl]ethyl}-1,3-oxazole-4,5-dicarboxamide], the IC50 is above 500 nM.
